Results reported in patent EP3696281A1, “ARGINASE AS BIOMARKER AND DRUG TARGET FOR PCOS” (Johann Wolfgang Goethe-Universität Frankfurt am Main, priority 2019, dated 2020).

Experiments:
arginase = test: Arginase activity in platelets incubated with arginase inhibitor, then lysed (MAK112 kit); format: cell-based, human; settings: 30 minutes, P<0.05
Description: Levels of ornithine (A), arginine (B), and the ratio of ornithine to arginine (C) in plasma from healthy donors or from PCOS patients, n= 22 (Student's t test). (D) Arginase activity in plasma from healthy donors or from PCOS patients, n=16 (Student's t test). (E) Levels of arginase-i in plasma from healthy donors or from PCOS patients, n=16 (Student's t test). (F) Levels of arginase-i in plasma from healthy donors or from PCOS patients in the presence or in the absence of microparticles, n=16 (ANOVA and Newman-Keuls post-test). (G) Levels of platelet-derived microparticles (PMPs) in plasma from healthy donors or from PCOS patients, n=17 (Student's t test). (H) Levels of arginase-i measured by flow cytometry in PMPs from healthy donors and from PCOS patients, n=17. […]
Given that platelets are the main source of plasma arginase in PCOS patients, the effect of arginase inhibitor on platelet arginase activity and function was assessed. […]
Arginase activity was determined in plasma or in platelets using commercially available kits (MAK112, Sigma, Steinheim, Germany), according to manufacturer's instructions.

washed human platelets = test: Aggregation of washed human platelets elicited by thrombin or U46619 (aggregometer); format: cell-based; settings: 5 minutes; for effect of pre-treatment with arginase inhibitor on arginine-mediated inhibition of platelet aggregation: pre-incubation with inhibitor (Nor-NOHA 100 µmol/L, 30 minutes), then arginine 1 mmol/L, thrombin or U46619; for thrombin or thromboxane A2 analogue-induced aggregation of platelets: arginine 1 mmol/L, alone
Description: Levels of ornithine (A), arginine (B), and the ratio of ornithine to arginine (C) in plasma from healthy donors or from PCOS patients, n= 22 (Student's t test). (D) Arginase activity in plasma from healthy donors or from PCOS patients, n=16 (Student's t test). (E) Levels of arginase-i in plasma from healthy donors or from PCOS patients, n=16 (Student's t test). (F) Levels of arginase-i in plasma from healthy donors or from PCOS patients in the presence or in the absence of microparticles, n=16 (ANOVA and Newman-Keuls post-test). (G) Levels of platelet-derived microparticles (PMPs) in plasma from healthy donors or from PCOS patients, n=17 (Student's t test). (H) Levels of arginase-i measured by flow cytometry in PMPs from healthy donors and from PCOS patients, n=17.
Human platelets were obtained by centrifugation (900g, 7 minutes) of platelet-rich plasma, as described. […] The resulting platelet-poor plasma was collected and frozen at -80°C for further evaluation.
Platelet aggregation. Aggregation of washed human platelets (4x10^8platelets/mL) was measured using an 8-channel aggregometer (PAP8, Mölab, Germany).

| Structure (SMILES) | arginase activity (arginase; platelets incubated with L-norvaline 10 mmol/L) | effect of pre-treatment with arginase inhibitor on arginine-mediated inhibition of platelet aggregation (washed human platelets; platelets from PCOS patients) | effect of pre-treatment with arginase inhibitor on arginine-mediated inhibition of platelet aggregation (washed human platelets; platelets from healthy donors) | arginase activity (arginase; platelets incubated with nor-NOHA 100 µmol/L) | thrombin or thromboxane A2 analogue-induced aggregation of platelets (washed human platelets; platelets from PCOS patients) | thrombin or thromboxane A2 analogue-induced aggregation of platelets (washed human platelets; platelets from healthy donors) |
| --- | --- | --- | --- | --- | --- | --- |
| CCC[C@H](N)C(=O)O [L-norvaline] | significantly inhibited arginase activity | significantly revealed the inhibitory effects of arginine | did not have additional effect on arginine-mediated platelet inhibition |  |  |  |
| N=C(NO)NCC[C@H](N)C(=O)O [NorNOHA, Nω-hydroxy-nor-L-arginine] |  | significantly revealed the inhibitory effects of arginine | did not have additional effect on arginine-mediated platelet inhibition | significantly inhibited arginase activity |  |  |
| N=C(N)NCCC[C@H](N)C(=O)O [arginine] |  |  |  |  | did not affect the aggregation | inhibited thrombin or thromboxane A2 analogue-induced aggregation |
